In patent US7323468B2, “Pyridopyrazines and the use thereof as kinase inhibitors” (AEterna Zentaris GmbH, priority 2003, dated 2008):

test system: not given; experiment: not given; conditions: not given

Structure (SMILES) | melting point
C=C(C)CNC(=S)Nc1ccc2ncc(-c3ccc4ccccc4c3)nc2n1 [Example 6, 1-(2-Methylallyl)-3-(3-naphthalen-2-ylpyrido[2,3-b]pyrazin-6-yl)thiourea] | 239 to 240 °C (dec.)

test system: Raf-Mek-Erk cascade (GST-c-Raf-DD, GST-Mek1, His-Erk2); experiment: Raf-Mek-Erk ELISA (cell-free reconstituted cascade, Erk phosphorylation); type: biochemical, human; conditions: inhibition of Erk phosphorylation, 1 mM ATP, 10 concentrations 31.6 pM-100 μM
Protocol: The inhibitory effect on the following human serine/threonine and tyrosine kinases of the compounds of the invention was tested in conventional kinase assays: PKB/Akt1, c-Raf, B-Raf, Mek, PDGFRbeta, Flt-3, c-Kit, c-Ab1, KDR, FGFR1 and IGF1R. Both the full-length kinases and truncated fragments—but at least the cytoplasmic, constitutively active kinase domains—were employed. The kinases were prepared as recombinant fusion proteins with GST (glutathion S-transferase) or HIS Tag in Sf9 cell culture. Depending on the substrate type, the various kinase reactions were carried out in sandwich ELISA formates or by means of a simple substrate adsorption assay on 96-well Flashplates (Perkin Elmer).
The testing on substances on the Raf-Mek-Erk cascade is described in detail below. Selected test results for the Raf and Mek inhibitors are then listed.
Procedure: Raf-Mek-Erk ELISA
Potential inhibitors were firstly investigated at a concentration of 20 μg/ml in initial single-dose determinations on 96-well microtiter plates (MTPs). Substances with >70% inhibition were employed for dose-response studies.
Reconstitution of the Raf-Mek-Erk cascade was quantified with the aid of a cell-free ELISA.
A typical kinase assay was carried out in a final volume of 50 μl with in each case 20-150 ng of Raf, Mek, Erk kinase protein, 1 mM ATP, 10 mM MgCl2, 150 mM NaCl, 25 mM beta-glycerophosphate, 25 mM Hepes pH 7.5. Before the kinase reaction, the test substances were each preincubated singly with each of the three kinase proteins at room temperature for 30 minutes. For the kinase reaction, the kinases preincubated with test substance were combined and incubated at 26° C. for 30 minutes. The reaction was stopped by a final concentration of 2% SDS and 10 minutes at 50° C. in a heating block.
For the immunodetection, the reaction mixtures were transferred to 96-well MTPs coated with anti-Erk Ab(K-23, Santa Cruz Biotechnology, incubated at room temperature for 60 minutes and washed 3× with TBST. Anti-phospho-Erk Ab (#9106, New England Biolabs) 1:500 in 50 μl of TBST/1% BSA, was added and incubated at 4° C. overnight. After the MTPs had been washed 3× with TBST, secondary anti-mouse IgG^POD conjugate (#NA931, Pharmacia) 1:2500 was added, incubated at room temperature for 1 h and again washed 3× with TBST. For colorimetric detection of the kinase reaction, 50 μl of OPD (o-phenyldiamine dihydrochloride) chromogen buffer were pipetted into each of the wells and incubated at 37° C. for 30 minutes. The colour reaction was then determined in an ELISA reader at 492 nm.
The experimental determination of dose-response plots took place using the same experimental design with 10 semilogarithmically graded concentrations from 31.6 pM-100 μM. The IC50 values were calculated in GraphPadPrism.

Structure (SMILES) | IC50 [µM]
COc1ccc(-c2cnc3ccc(NC(=S)Nc4ccc([N+](=O)[O-])cc4)nc3n2)cc1 [Example 9, 1-[3-(4-Methoxyphenyl)pyrido[2,3-b]pyrazin-6-yl]-3-(4-nitrophenyl)thiourea] | > 100
S=C(NCc1ccccc1)Nc1ccc2ncc(-c3ccccc3)nc2n1 [Example 13, 1-Benzyl-3-(3-phenylpyrido[2,3-b]pyrazin-6-yl)thiourea] | > 100
CC(C)(C)NC(=S)Nc1ccc2ncc(-c3ccccc3)nc2n1 [Example 10, 1-tert-Butyl-3-(3-phenylpyrido[2,3-b]pyrazin-6-yl)thiourea] | > 100
O=[N+]([O-])c1ccc(NC(=S)Nc2ccc3ncc(-c4ccc5ccccc5c4)nc3n2)cc1 [Example 8, 1-(3-Naphthalen-2-ylpyrido[2,3-b]pyrazin-6-yl)-3-(4-nitrophenyl)thiourea] | > 100
Cc1ccc(NC(=O)Nc2ccc3ncc(-c4ccccc4)nc3n2)cc1 [Example 15, 1-(3-Phenylpyrido[2,3-b]pyrazin-6-yl)-3-p-tolylurea] | > 100
O=C(Nc1ccc(Cl)c(C(F)(F)F)c1)Nc1ccc2ncc(-c3ccccc3)nc2n1 [Example 16, 1-(4-Chloro-3-trifluoromethylphenyl)-3-(3-phenylpyrido[2,3-b]pyrazin-6-yl)urea] | > 100
